From patent US20100292188A1, “Compounds Comprising A Cyclobutoxy Group” (UCB PHARMA S.A., priority 2008, published 2010)

SMILES	melting point
COCC(=O)N1CCc2nc(-c3ccc(O[C@H]4C[C@H](N5CCCCC5)C4)cc3)sc2C1 [Compound 2, 5-(methoxyacetyl)-2-{4-[(trans-3-piperidin-1-ylcyclobutyl)oxy]phenyl}-4,5,6,7-tetrahydro[1,3]thiazolo[5,4-c]pyridine]	128 °C
CC(=O)N1CCc2nc(-c3ccc(O[C@H]4C[C@H](N5CCC(F)(F)CC5)C4)cc3)sc2C1 [Compound 13, 5-acetyl-2-(4-{[trans-3-(4,4-difluoropiperidin-1-yl)cyclobutyl]oxy}phenyl)-4,5,6,7-tetrahydro[1,3]thiazolo[5,4-c]pyridine]	175 °C
CC(=O)N1CCc2nc(-c3ccc(O[C@H]4C[C@H](N5CCCCCC5)C4)cc3)sc2C1 [Compound 19, 5-acetyl-2-{4-[(trans-3-azepan-1-ylcyclobutyl)oxy]phenyl}-4,5,6,7-tetrahydro[1,3]thiazolo[5,4-c]pyridine]	135 °C
CC(C)(C)OC(=O)N1CCc2nc(-c3ccc(O[C@H]4C[C@H](N5CCCCC5)C4)cc3)sc2C1 [Compound 3, tert-butyl 2-{4-[(trans-3-piperidin-1-ylcyclobutyl)oxy]phenyl}-6,7-dihydro[1,3]thiazolo[5,4-c]pyridine-5(4H)-carboxylate]	162.3 °C
O=S(=O)(N1CCOCC1)N1CCc2nc(-c3ccc(O[C@H]4C[C@H](N5CCCCC5)C4)cc3)sc2C1 [Compound 7, 5-(morpholin-4-ylsulfonyl)-2-{4-[(trans-3-piperidin-1-ylcyclobutyl)oxy]phenyl}-4,5,6,7-tetrahydro[1,3]thiazolo[5,4-c]pyridine]	178 °C
CC(=O)N1CCc2oc(-c3ccc(O[C@H]4C[C@H](N5CCCCC5)C4)cc3)nc2C1 [Compound 28, 5-acetyl-2-{4-[(trans-3-piperidin-1-ylcyclobutyl)oxy]phenyl}-4,5,6,7-tetrahydro[1,3]oxazolo[4,5-c]pyridine]	141.9 °C
OC[C@@H](O)CN1CCc2nc(-c3ccc(O[C@H]4C[C@H](N5CCCCC5)C4)cc3)sc2C1 [Compound 16, (2S)-3-[2-{4-[(trans-3-piperidin-1-ylcyclobutyl)oxy]phenyl}-6,7-dihydro[1,3]thiazolo[5,4-c]pyridin-5(4H)-yl]propane-1,2-diol]	175 °C
CC(=O)N1CCc2nc(-c3ccc(O[C@H]4C[C@H](N5CCN(C(C)C)CC5)C4)cc3)sc2C1 [Compound 12, 5-acetyl-2-(4-{[trans-3-(4-isopropylpiperazin-1-yl)cyclobutyl]oxy}phenyl)-4,5,6,7-tetrahydro[1,3]thiazolo[5,4-c]pyridine]	109 °C
O=C(CO)N1CCc2nc(-c3ccc(O[C@H]4C[C@H](N5CCCCC5)C4)cc3)sc2C1 [Compound 11, 2-oxo-2-[2-{4-[(trans-3-piperidin-1-ylcyclobutyl)oxy]phenyl}-6,7-dihydro[1,3]thiazolo[5,4-c]pyridin-5(4H)-yl]ethanol]	177 °C
CC(=O)N1CCc2nc(-c3ccc(O[C@H]4C[C@H](N5CCCCC5)C4)cc3)sc2C1 [Compound 4, 5-acetyl-2-{4-[(trans-3-piperidin-1-ylcyclobutyl)oxy]phenyl}-4,5,6,7-tetrahydro[1,3]thiazolo[5,4-c]pyridine]	170.3 °C

The next lines start with the values.

melting point	SMILES
146 °C	CC(=O)N1CCCc2sc(-c3ccc(O[C@H]4C[C@H](N5CCCCC5)C4)cc3)nc21 [Compound 30, 4-acetyl-2-{4-[(trans-3-piperidin-1-ylcyclobutyl)oxy]phenyl}-4,5,6,7-tetrahydro[1,3]thiazolo[4,5-b]pyridine]
165 to 172 °C	c1cc2nc(-c3ccc(O[C@H]4C[C@H](N5CCCCC5)C4)cc3)[nH]c2cn1 [Compound 69, 2-{4-[(trans-3-piperidin-1-ylcyclobutyl)oxy]phenyl}-3H-imidazo[4,5-c]pyridine]
175 to 176 °C	O=C(C1CCOCC1)N1CCc2nc(-c3ccc(O[C@H]4C[C@H](N5CCCCC5)C4)cc3)sc2C1 [Compound 45, 2-{4-[(trans-3-piperidin-1-ylcyclobutyl)oxy]phenyl}-5-(tetrahydro-2H-pyran-4-ylcarbonyl)-4,5,6,7-tetrahydro[1,3]thiazolo[5,4-c]pyridine]
167 to 168 °C	O=C(C(O)CO)N1CCc2nc(-c3ccc(O[C@H]4C[C@H](N5CCCCC5)C4)cc3)sc2C1 (stereo partly drawn) [Compound 54, 3-oxo-3-[2-{4-[(trans-3-piperidin-1-ylcyclobutyl)oxy]phenyl}-6,7-dihydro[1,3]thiazolo[5,4-c]pyridin-5(4H)-yl]propane-1,2-diol]
144 °C	CC(=O)NCCC(=O)N1CCc2nc(-c3ccc(O[C@H]4C[C@H](N5CCCCC5)C4)cc3)sc2C1 [Compound 42, N-{3-oxo-3-[2-{4-[(trans-3-piperidin-1-ylcyclobutyl)oxy]phenyl}-6,7-dihydro[1,3]thiazolo[5,4-c]pyridin-5(4H)-yl]propyl}acetamide]
154.2 °C	CC(=O)N1CCc2sc(-c3ccc(O[C@H]4C[C@H](N5CCCCC5)C4)cc3)nc2C1 [Compound 29, 5-acetyl-2-{4-[(trans-3-piperidin-1-ylcyclobutyl)oxy]phenyl}-4,5,6,7-tetrahydro[1,3]thiazolo[4,5-c]pyridine]
150 to 154 °C	Cc1n[nH]nc1C(=O)N1CCc2nc(-c3ccc(O[C@H]4C[C@H](N5CCCCC5)C4)cc3)sc2C1 [Compound 35, 5-[(5-methyl-2H-1,2,3-triazol-4-yl)carbonyl]-2-{4-[(trans-3-piperidin-1-ylcyclobutyl)oxy]phenyl}-4,5,6,7-tetrahydro[1,3]thiazolo[5,4-c]pyridine]
